Legend:
[1] = test system: HIV-1BaL; test: anti-viremic capacity: HIV-1BaL replication in primary human microglia, p24 accumulation; format: cell-based; settings: for HIV-1BaL replication, accumulation of p24 HIV capsid protein: HIV-1BaL 1 ng/mL p24, over 10 days; for effect on efficacy of cART when co-administered: co-administered with cART
Method: […] Corp.) as described previously.
Assessment for viremia: Media, compounds 1-6, or 3α,5α-THP was assessed in a dose-response curve (0.1, 0.3, 1, 3.2, 10, 32, 100, 320, 1×10^3, 10×10^3, 100×10^3 nM) for their anti-viremic capacity (FIG. 9). To monitor infection, samples are taken every 72 h to measure p24 or proviral DNA129-130. Infection was confirmed post-hoc via immunocytochemical imaging of HIV-1 negative regulatory factor (Nef). As needed, TZM-bl and Jurkat reporter cells were also used to determine viral proliferation.
Interactions with cART: Efficacious concentrations were re-assessed in separate mock- or HIV-1BaL-infected cultures in the presence or absence of Triumeq® [Abacavir (ABC; 10 μM)/dolutegravir (DTG; 1 nM)/lamivudine (3TC; 30 μM) dosing derived from FDA-approved insert] to assess interactions with viremic control, cytotoxicity, and cytokine production.

[2] = test system: mouse primary medium spiny neurons in mixed glial co-culture; test: Tat and/or gp120 neurotoxicity (necrosis, propidium iodide) in neuron/mixed glia co-culture; format: cell-based; settings: for baseline cell death: highest concentrations; for Tat and/or gp120-mediated necrosis / neurotoxicity: pretreatment, 0.001-10×10^3 nM, HIV-1 Tat and/or gp120 for 20 h
Method: The trans-diol analogue of 3α, 5α-THP, 5α-pregnan-2β,3α-diol-20-one (compound 1) was synthesized. Mixed glia (derived from 0-1 day old mouse pups) and primary medium spiny neurons (from the striatum of E17 pups) were co-cultured as previously described. Co-cultures were pretreated with a concentration-response curve (0.001-10×10^3 nM) of 3α,5α-THP or the analogue, 1, and exposed to HIV-1 Tat and/or gp120 for 20 h. Prior time-lapse experiments have identified this time-point as the earliest time at which 3α,5α-THP protection is evident. Each treatment group consisted of 3 independent observations (with 2 technical replicates each). Necrotic cells were identified via propidium iodide labeling.

[3] = rabbits or mice, cited from earlier work
[4] = women following three consecutive SC injections; cited from earlier work
[5] = test system: primary, mouse splenocytes; test: mitogen-stimulated proliferation of splenocytes; format: cell-based; settings: high concentrations
[6] = biological target: HIV-1 trans-activation response element; settings: read-out: affinity; cited from earlier work

Compound: CC(=O)[C@H]1CC[C@H]2[C@@H]3CC[C@H]4C[C@H](O)CC[C@]4(C)[C@H]3CC[C@]12C [3α,5α-THP, 5α-pregnan-3α-ol-20-one]
- HIV-1BaL replication, accumulation of p24 HIV capsid protein [1]: attenuates
- effect on efficacy of cART when co-administered [1]: Neither AlloP nor 1 impairs the efficacy of cART
- increase in cell death ([2]; at 10 nM): 5.7%
- baseline cell death [2]: increased baseline cell death modestly
- Tat and/or gp120-mediated necrosis / neurotoxicity [2]: significantly attenuated necrosis at every dose assessed
- elimination half-life (t1/2z) ([3]; administered subcutaneously): 0.2 to 0.667 h
- elimination half-life (t1/2z) in brain ([3]; infused IV): ~4 h
- plasma clearance [4]: ~4 h

Compound: CC(=O)[C@H]1CC[C@H]2[C@@H]3CC[C@H]4C[C@H](O)[C@@H](O)C[C@]4(C)[C@H]3CC[C@]12C [compound 1, 2β,3α-dihydroxy-5α-pregnan-20-one]
- HIV-1BaL replication, accumulation of p24 HIV capsid protein [1]: attenuates
- effect on efficacy of cART when co-administered [1]: Neither AlloP nor 1 impairs the efficacy of cART
- potency in ameliorating Tat-neurotoxicity relative to 3α,5α-THP [2]: equipotent to 3α,5α-THP
- increase in cell death ([2]; at 1 nM): 8.8%
- increase in cell death ([2]; at 10 nM): 10.5%
- baseline cell death [2]: increased baseline cell death modestly
- Tat and/or gp120-mediated necrosis / neurotoxicity ([2]; listed as analogue 1): significantly attenuated necrosis at every dose assessed

Compound: C[C@]12C[C@H](O)[C@H]3[C@@H](CCC4=CC(=O)CC[C@@]43C)[C@@H]1CC[C@@H]2C(=O)CO [corticosterone]
- mitogen-stimulated proliferation [5]: reduce mitogen-stimulated proliferation

Compound: CN(C)[C@H]1C[C@@]23CC[C@@]4(O2)C(=CC[C@]2(C)C(c5ccc6ccncc6c5)=CC[C@H]24)C=C3[C@@H](O)[C@@H]1O [dCA, didehydro-cortistatin A]
- Kd [6]: 1 to 2 nM

From patent US20250000875A1, “ALLOPREGNANOLONE ANALOGUES FOR HIV VIREMIA AND NEUROTOXICITY PROTECTION” (priority 2021, published 2025)
